Assay results as given in publication PMC5563452 (Nature chemical biology, 2017).

Key:
TRPM2 [1] = target: T1, TRPM2 (Homo sapiens, UniProt O94759); assay: whole-cell patch clamp; assay type: cell-based
TRPM2 [2] = target: T1, TRPM2; assay: whole-cell patch clamp, HEK293 expressing hTRPM2; assay type: cell-based

T1 sequence (O94759 whole entry): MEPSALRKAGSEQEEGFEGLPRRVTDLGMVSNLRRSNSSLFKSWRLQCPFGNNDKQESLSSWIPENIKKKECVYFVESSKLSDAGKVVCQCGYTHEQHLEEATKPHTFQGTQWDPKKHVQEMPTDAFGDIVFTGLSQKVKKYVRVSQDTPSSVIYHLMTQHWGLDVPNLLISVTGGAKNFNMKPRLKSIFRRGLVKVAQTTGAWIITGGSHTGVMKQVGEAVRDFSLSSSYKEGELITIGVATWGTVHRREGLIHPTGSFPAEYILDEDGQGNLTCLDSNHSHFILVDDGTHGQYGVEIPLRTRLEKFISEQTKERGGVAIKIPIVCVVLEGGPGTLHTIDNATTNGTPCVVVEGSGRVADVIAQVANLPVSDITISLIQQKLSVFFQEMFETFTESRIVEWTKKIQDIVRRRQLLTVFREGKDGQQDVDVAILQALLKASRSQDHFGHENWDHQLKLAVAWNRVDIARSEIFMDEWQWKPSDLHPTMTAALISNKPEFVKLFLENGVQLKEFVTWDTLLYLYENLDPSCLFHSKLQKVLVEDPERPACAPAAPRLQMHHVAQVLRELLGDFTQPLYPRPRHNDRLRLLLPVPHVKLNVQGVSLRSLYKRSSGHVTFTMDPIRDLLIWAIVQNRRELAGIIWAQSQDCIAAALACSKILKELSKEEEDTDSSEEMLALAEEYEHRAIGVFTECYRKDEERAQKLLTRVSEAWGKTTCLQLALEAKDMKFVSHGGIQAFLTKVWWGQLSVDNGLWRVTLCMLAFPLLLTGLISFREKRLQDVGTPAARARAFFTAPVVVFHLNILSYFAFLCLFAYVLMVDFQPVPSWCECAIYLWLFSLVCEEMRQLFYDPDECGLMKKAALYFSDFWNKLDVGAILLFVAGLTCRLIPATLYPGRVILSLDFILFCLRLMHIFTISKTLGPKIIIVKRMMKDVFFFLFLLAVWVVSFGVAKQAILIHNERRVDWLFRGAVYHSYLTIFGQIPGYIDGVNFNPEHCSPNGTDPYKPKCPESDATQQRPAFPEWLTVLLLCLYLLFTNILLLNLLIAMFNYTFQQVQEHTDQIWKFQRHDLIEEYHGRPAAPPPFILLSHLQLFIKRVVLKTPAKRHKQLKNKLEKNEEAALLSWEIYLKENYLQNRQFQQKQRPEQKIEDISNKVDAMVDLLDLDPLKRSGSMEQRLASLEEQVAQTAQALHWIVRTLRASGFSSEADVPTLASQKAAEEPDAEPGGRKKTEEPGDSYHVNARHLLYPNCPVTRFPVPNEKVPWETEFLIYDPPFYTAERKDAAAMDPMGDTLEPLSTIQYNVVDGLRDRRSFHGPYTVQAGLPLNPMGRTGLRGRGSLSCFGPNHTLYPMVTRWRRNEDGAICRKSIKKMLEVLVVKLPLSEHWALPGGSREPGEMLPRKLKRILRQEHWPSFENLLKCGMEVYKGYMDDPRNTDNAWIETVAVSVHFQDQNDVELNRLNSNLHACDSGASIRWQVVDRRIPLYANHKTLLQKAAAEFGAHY

EC50 (TRPM2 [1]) | EC50 (TRPM2 [2]) | SMILES
28 µM | – | Nc1ncnc2c1ncn2[C@@H]1O[C@H](COP(=O)(O)OP(=O)(O)OC[C@H]2OC(O)[C@H](O)[C@@H]2O)[C@@H](O)[C@H]1O (stereo partly drawn) [compound 1, ADPR]
– | 110 µM | Nc1ncnc2c1ncn2[C@@H]1O[C@H](COP(=O)(O)OP(=O)(O)OC[C@H]2OC(O)[C@H](O)[C@@H]2O)[C@@H](O)[C@H]1OP(=O)(O)O (stereo partly drawn) [compound 15, 2′-phospho-ADPR]
– | 46 µM | Nc1ncnc2c1ncn2[C@@H]1O[C@H](COP(=O)(O)OP(=O)(O)OC[C@H]2OC(O)[C@H](O)[C@@H]2O)C[C@H]1O (stereo partly drawn) [compound 17, 3′-deoxy-ADPR]
